The target of test [1] is T1, human TLR2 (Homo sapiens (Human), UniProt O60603). Kind of test: HEK-Blue hTLR2 antagonism assay (SEAP reporter), agonist Pam2CSK4. The class given is cell-based. The settings on record: HEK-Blue hTLR2 cells; Pam2CSK4 (TLR2/6 agonist) at approx. 3×EC50; 18 h; 8-point dilutions. Here is the method: (§1) Synthetic diacylated lipoprotein (Pam2CSK4, TLR2/6 agonist) and synthetic triacylated lipoprotein (Pam3CSK4, TLR1/2 agonist) were obtained from InvivoGen and were dissolved in endotoxin-free water to a concentration 1 mg/mL, vortexed until complete solubilization, and stored in aliquots at −20° C. Prior to addition to cells, an aliquot of the dissolved ligand was vortexed shortly and then was diluted in medium to 25 ng/mL Pam2CSK4 or 1000 ng/mL Pam3CSK4.
(§2) Test compounds were solubilized fresh to 10-20 mM stocks in DMSO and sonicated for 5-10 minutes in a water bath sonicator. Serial dilutions were prepared in DMSO, and then diluted in medium. The final concentration of DMSO used in the assay was 1%.
(§3) HEK-Blue hTLR2 reporter cells (InvivoGen) are HEK-293 cells stably expressing both the human TLR2 gene and a secreted embryonic alkaline phosphatase (SEAP) reporter construct downstream of NFκB promotor sites. HEK-Blue hTLR2 reporters were cultured according to manufacturer's protocol using Dulbecco's Modified Eagle Medium (DMEM; Gibco) containing 1× GlutaMax (Gibco), 10% heat-inactivated Fetal Bovine Serum (Gibco), Pen-Strep (50 U/mL penicillin, 50 μg/mL streptomycin, Gibco), 100 μg/mL Normocin (InvivoGen), and the selective antibiotic, lx HEK-Blue Selection (InvivoGen). Quanti-Blue reagent (InvivoGen) for detection and quantification of secreted alkaline phosphatase was dissolved in 100 mL of endotoxin-free water, warmed to 37° C. for 30 minutes and then filtered using a 0.2 μm membrane.
(§4) On day 1, 50 μL of each test compound dilution in duplicates or a vehicle control was added to each well of a 96-well plate followed by addition of 150 μL of HEK-Blue hTLR2 cell suspension (1×10^5 cells/well) and incubated at 37° C./5% CO2 for 2 h. Next, 50 μL of an approximate 3×EC50 concentration of each agonist (Pam2CSK4 or Pam3CSK4) was added to the wells containing test compounds or the vehicle control. The plates were then incubated at 37° C./5% CO2 for 18 h. For each assay run, non-treated HEK-Blue hTLR2 cells were treated with serial dilutions of agonists to determine EC50 values for the respective run.
(§5) On day 2, secreted alkaline phosphatase (SEAP) activity was detected in cell culture supernatants. In brief, 20 μL was collected from each well and transferred to a 96-well plate. Next, 200 μL of Quanti-Blue detection reagent was added to each well. Plates were incubated at room temperature for 15 min and SEAP activity was assessed by spectrophotometer OD reading at 655 nm. […] IC50 values were calculated based on 8-point dilutions for each compound.

Test [2] deals with T1, human TLR2. Kind of test: HEK-Blue hTLR2 antagonism assay (SEAP reporter), agonist Pam3CSK4. The class given is cell-based. The settings on record: HEK-Blue hTLR2 cells; Pam3CSK4 (TLR1/2 agonist) at approx. 3×EC50; 18 h; 8-point dilutions. Here is the method:
as §1, §2, §3, §4, §5

22 compounds from US20240043395A1, “COMPOUNDS AND COMPOSITIONS AS MODULATORS OF TLR SIGNALING” (Neuropore Therapies, Inc., priority 2020, published 2024) can be followed below.

T1 sequence (O60603 21-784): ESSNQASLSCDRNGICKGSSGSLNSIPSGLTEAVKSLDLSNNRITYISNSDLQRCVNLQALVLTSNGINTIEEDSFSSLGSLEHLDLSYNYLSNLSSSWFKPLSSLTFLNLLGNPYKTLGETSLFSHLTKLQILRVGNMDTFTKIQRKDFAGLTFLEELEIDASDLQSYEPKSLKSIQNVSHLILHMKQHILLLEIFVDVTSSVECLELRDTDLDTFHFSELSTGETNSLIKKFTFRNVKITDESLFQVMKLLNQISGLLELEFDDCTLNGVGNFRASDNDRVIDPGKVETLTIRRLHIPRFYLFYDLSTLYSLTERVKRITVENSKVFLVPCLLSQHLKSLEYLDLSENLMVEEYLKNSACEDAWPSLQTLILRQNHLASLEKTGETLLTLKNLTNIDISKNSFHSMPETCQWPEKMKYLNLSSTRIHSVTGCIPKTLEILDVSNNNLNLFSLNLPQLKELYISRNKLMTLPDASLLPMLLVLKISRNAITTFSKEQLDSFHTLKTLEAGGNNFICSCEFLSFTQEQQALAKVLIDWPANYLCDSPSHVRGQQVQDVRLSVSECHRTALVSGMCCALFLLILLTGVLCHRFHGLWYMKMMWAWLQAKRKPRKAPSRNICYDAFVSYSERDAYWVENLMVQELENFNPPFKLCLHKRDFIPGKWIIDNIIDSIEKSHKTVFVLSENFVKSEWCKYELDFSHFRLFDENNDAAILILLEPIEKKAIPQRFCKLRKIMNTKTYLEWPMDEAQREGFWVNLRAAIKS

For `O=Cc1cc(C(=O)N2CCC(c3ccc(N4CCCC4)cc3)C2)cc(F)c1O` (centres unmarked) [Compound 82, 3-fluoro-2-hydroxy-5-(3-(4-(pyrrolidin-1-yl)phenyl)pyrrolidine-1-carbonyl)benzaldehyde], the IC50 (commonly the concentration needed to halve the response being measured) was determined as 8.4 µM on human TLR2 [1] and 3.5 µM at human TLR2 [2].
The corresponding values for `O=Cc1cc(C(=O)Nc2nc(-c3ccccc3)cs2)cc(F)c1O` [Compound 6, 3-fluoro-5-formyl-4-hydroxy-N-(4-phenylthiazol-2-yl)benzamide] are 5.1 µM and 3.3 µM.
Consider `O=Cc1cc(C(=O)Nc2nnc(N3CCCCC3)s2)cc(F)c1O` [Compound 1, 3-fluoro-5-formyl-4-hydroxy-N-(5-(piperidin-1-yl)-1,3,4-thiadiazol-2-yl)benzamide], for which the IC50 at human TLR2 [1] came out at 45.8 µM; at human TLR2 [2], 21.8 µM.
Consider `O=Cc1cc(C(=O)N2CCO[C@@H](c3ccc(N4CCCC4)cc3)C2)cc(F)c1O` (single isomer, unassigned) [Compound 148], for which the IC50 on human TLR2 [1] is 4.99 µM; on human TLR2 [2] it was 1.88 µM.
The like results for `O=Cc1cc(C(=O)c2ccc(N3CCCC3)cc2)cc(F)c1O` [Compound 14, 3-fluoro-2-hydroxy-5-(4-(pyrrolidin-1-yl)benzoyl)benzaldehyde] were, in that order, 18.2 µM and 18.7 µM.
With `O=Cc1cc(C(=O)N2CCC(c3cccc(N4CCCC4)c3)CC2)cc(F)c1O` [Compound 35, 3-fluoro-2-hydroxy-5-(4-(3-(pyrrolidin-1-yl)phenyl)piperidine-1-carbonyl)benzaldehyde], the 50% inhibitory concentration (IC50) at human TLR2 [1] was 13.8 µM; on human TLR2 [2] it was 8 µM.
The like results for `O=Cc1cc(-c2cnc(-c3ccc(N4CCCC4)nc3)s2)ncc1O` [Compound 129, 5-hydroxy-2-(2-(6-(pyrrolidin-1-yl)pyridin-3-yl)thiazol-5-yl)isonicotinaldehyde] were, in that order, 0.7 µM and 0.4 µM.
The like results for `O=Cc1cc(C(=O)NCCCc2ccc(N3CCCC3)cc2)cc(F)c1O` [Compound 144, 3-fluoro-5-formyl-4-hydroxy-N-(3-(4-(pyrrolidin-1-yl)phenyl)propyl)benzamide] were, in that order, 9.3 µM and 5.3 µM.
The like results for `O=Cc1cc(C(=O)Nc2ncc(-c3ccc(N4CCCC4)cc3)s2)cc(F)c1O` [Compound 13, 3-fluoro-5-formyl-4-hydroxy-N-(5-(4-(pyrrolidin-1-yl)phenyl)thiazol-2-yl)benzamide] were, in that order, 1.5 µM and 1 µM.
Take `O=Cc1cc(C(=O)Nc2coc(-c3ccccc3)n2)cc(F)c1O` [Compound 15, 3-fluoro-5-formyl-4-hydroxy-N-(2-phenyloxazol-4-yl)benzamide]: the results for the IC50 at human TLR2 [1] and on human TLR2 [2] were 4.1 µM and 0.9 µM, respectively.
The corresponding values for `O=Cc1cc(C(=O)NCCc2ccc(N3CCCC3)cc2)cc(F)c1O` [Compound 143, 3-fluoro-5-formyl-4-hydroxy-N-(4-(pyrrolidin-1-yl)phenethyl)benzamide] are 17 µM and 12.3 µM.
The corresponding values for `CN(C)C(=O)Oc1c(F)cc(-c2nc(-c3ccc(N4CCCC4)cc3)ns2)cc1C=O` [Compound 173, 2-fluoro-6-formyl-4-(3-(4-(pyrrolidin-1-yl)phenyl)-1,2,4-thiadiazol-5-yl)phenyl dimethylcarbamate] are 0.9 µM and 0.5 µM.
The corresponding values for `O=Cc1cc(-c2nc(-c3ccc(N4CCCC4)cc3)ns2)cc(F)c1OC(=O)N1CCOCC1` [Compound 174, 2-fluoro-6-formyl-4-(3-(4-(pyrrolidin-1-yl)phenyl)-1,2,4-thiadiazol-5-yl)phenyl morpholine-4-carboxylate] are 1.5 µM and 0.6 µM.
As for `O=Cc1cc(COC(=O)Nc2cccc(N3CCCC3)c2)cc(F)c1O` [Compound 159, 3-fluoro-5-formyl-4-hydroxybenzyl (3-(pyrrolidin-1-yl)phenyl)carbamate], the IC50 at human TLR2 [1] was determined as 9.29 µM; on human TLR2 [2], 4.39 µM.
The corresponding values for `COc1cc(-c2cnn(-c3ccc(C(F)(F)F)cc3)c2)cc(C=O)c1O` [Compound 128, 2-hydroxy-3-methoxy-5-(1-(4-(trifluoromethyl)phenyl)-1H-pyrazol-4-yl)benzaldehyde] are 0.7 µM and 0.8 µM.
Regarding `O=Cc1cc(C(=O)N2CCCC2c2ccc(N3CCCC3)cc2)cc(F)c1O` (racemic) [Compound 155, rac-3-fluoro-2-hydroxy-5-(2-(4-(pyrrolidin-1-yl)phenyl)pyrrolidine-1-carbonyl)benzaldehyde], the IC50 is 15.7 µM on human TLR2 [1] and 9.62 µM on human TLR2 [2].
The like results for `O=Cc1cc(C(=O)Nc2ncc(N3CCCCC3)s2)cc(F)c1O` [Compound 3, 3-fluoro-5-formyl-4-hydroxy-N-(5-(piperidin-1-yl)thiazol-2-yl)benzamide] were, in that order, 2.3 µM and 1.7 µM.
Take `O=Cc1cc(C(=O)N2CCC(c3ccc(N4CCCC4)nc3)CC2)cc(F)c1O` [Compound 37, 3-fluoro-2-hydroxy-5-(4-(6-(pyrrolidin-1-yl)pyridin-3-yl)piperidine-1-carbonyl)benzaldehyde]: the results for the IC50 on human TLR2 [1] and on human TLR2 [2] were 6.2 µM and 4.8 µM, respectively.
The like results for `COCCN1C(=O)Oc2c(F)cc(-c3nc(-c4ccc(N5CCCC5)cc4)ns3)cc2C1O` (centres unmarked) [Compound 179, 8-fluoro-4-hydroxy-3-(2-methoxyethyl)-6-(3-(4-(pyrrolidin-1-yl)phenyl)-1,2,4-thiadiazol-5-yl)-3,4-dihydro-2H-benzo[e][1,3]oxazin-2-one] were, in that order, 0.8 µM and 0.2 µM.
For `O=Cc1cc(C(=O)NNc2cccc(Br)c2)cc(F)c1O` [Compound 160, N′-(3-bromophenyl)-3-fluoro-5-formyl-4-hydroxybenzohydrazide], the results for the IC50 on human TLR2 [1] and on human TLR2 [2] were 38.4 µM and 26.5 µM, respectively.
The corresponding values for `CN1C(=O)Oc2c(F)cc(-c3nc(-c4ccc(N5CCCC5)cc4)ns3)cc2C1O` (centres unmarked) [Compound 178, 8-fluoro-4-hydroxy-3-methyl-6-(3-(4-(pyrrolidin-1-yl)phenyl)-1,2,4-thiadiazol-5-yl)-3,4-dihydro-2H-benzo[e][1,3]oxazin-2-one] are 1.2 µM and 0.43 µM.
The like results for `O=Cc1cc(C(=O)N2CCC(c3ccc(N4CCCC4)cc3)CC2)cc(F)c1O` [Compound 34, 3-fluoro-2-hydroxy-5-(4-(4-(pyrrolidin-1-yl)phenyl)piperidine-1-carbonyl)benzaldehyde] were, in that order, 0.9 µM and 0.4 µM.
